pIC50: −log10 of the molar value.
Legend:
5-HT1A receptor [1] = biological target: T1, 5-HT1A receptor (Cavia porcellus, UniProt A0A286Y074); assay: 5-HT1A receptor antagonism: antagonism of 5-carboxamido-tryptamine in the guinea-pig ileum in vitro; conditions: read-out: pA2, antagonism of 5-carboxamido-tryptamine (converted)
T1 construct: guinea-pig ileum in vitro; from tissue; host or cells: guinea-pig ileum, isolated tissue
T1 sequence (A0A286Y074 1-421): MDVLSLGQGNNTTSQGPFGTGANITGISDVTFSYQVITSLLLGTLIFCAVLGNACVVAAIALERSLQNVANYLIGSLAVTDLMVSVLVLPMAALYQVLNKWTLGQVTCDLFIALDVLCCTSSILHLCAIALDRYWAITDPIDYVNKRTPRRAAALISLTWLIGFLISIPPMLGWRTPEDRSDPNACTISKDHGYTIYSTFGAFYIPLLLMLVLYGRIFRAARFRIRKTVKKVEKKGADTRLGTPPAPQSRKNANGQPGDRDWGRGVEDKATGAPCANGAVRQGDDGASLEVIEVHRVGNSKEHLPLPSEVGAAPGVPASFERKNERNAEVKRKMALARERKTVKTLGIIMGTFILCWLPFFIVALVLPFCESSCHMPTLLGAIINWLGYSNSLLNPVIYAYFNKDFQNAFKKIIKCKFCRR
Method: The compounds are tested for 5-HT1A receptor antagonism activity in a test involving the antagonism of 5-carboxamido-tryptamine in the guinea-pig ileum in vitro (based upon the procedure of Fozard et al, Br. J. Pharmac., 1985, 86, 601P).

5-HT1A receptor [2] = biological target: T2, 5-HT1A receptor (Rattus norvegicus, UniProt P19327); assay: 5-HT1A receptor binding activity in rat hippocampal membrane homogenate
T2 construct: rat hippocampal membrane homogenated; from tissue; host or cells: rat hippocampus, membrane homogenate
T2 sequence (P19327 1-422): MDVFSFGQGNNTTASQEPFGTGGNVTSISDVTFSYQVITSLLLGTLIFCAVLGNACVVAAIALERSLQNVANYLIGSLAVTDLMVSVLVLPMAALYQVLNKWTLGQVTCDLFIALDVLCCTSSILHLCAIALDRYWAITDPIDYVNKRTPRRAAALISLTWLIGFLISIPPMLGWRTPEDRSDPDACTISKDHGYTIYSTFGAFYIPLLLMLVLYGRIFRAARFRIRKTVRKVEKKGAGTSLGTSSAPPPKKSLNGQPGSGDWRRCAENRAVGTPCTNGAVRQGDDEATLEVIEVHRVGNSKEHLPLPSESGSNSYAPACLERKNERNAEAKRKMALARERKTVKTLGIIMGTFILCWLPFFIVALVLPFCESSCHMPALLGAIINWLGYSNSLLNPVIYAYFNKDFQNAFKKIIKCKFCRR
Method: The compounds of the invention are tested for 5-HT1A receptor binding activity in rat hippocampal membrane homogenated by the method of B. S. Alexander and M. D. Wood, J Pharm Pharmacol, 1988, 40, 888-891.

For `O=C(C(CCN1CCN(c2cccc3c2OCCO3)CC1)c1ccccc1)N1CCCCCC1` (centres unmarked) [Example 8, 2,3,4,5,6,7-Hexahydro-1-{4-[1-[4-(2,3-dihydro-1,4-benzodioxin-5-yl)piperazinyl]]-2-phenylbutyryl}-1H-azepine], the Kb (5-HT1A receptor [1]) was 0.398 nM and the pIC50 (5-HT1A receptor [2]) was 9.22.
